Reference: patent US11382907B2, “Methods and compositions for treating aging-associated impairments using CCR3-inhibitors” (Alkahest, Inc., priority 2017, dated 2022)

Tests used:
[1] = test system: doublecortin-positive cells in the hippocampus; test: Histology: doublecortin (DCX) positive cells in hippocampus of aged mice; assay type: in vivo, C57Bl/6 mice; settings: 18-month-old mice; four-week subcutaneous dosing by pump, versus IgG control
Text: Mice were taken down on the day following the end of behavior testing. Anesthesia was induced by 2,2,2-tribromoethanol and mice were subsequently perfused with 0.9% saline trans-cardially. The brains were dissected and cut sagitally in two even halves. One half was snap frozen for later use in dry ice, and the other was fixed in 4% paraformaldehyde in PBS for use in immunohistochemistry. After two days of fixation, the hemibrains were transferred to a 30% sucrose in PBS solution and changed after two days. Hemibrains were sectioned at 30 um on a microtome at −22° C. Brain sections were stored in cryoprotectant media at −20° C. until needed for staining. Blocking was done on free floating sections in the appropriate serum at 10% serum in PBST 0.5%. Primary antibodies were incubated overnight at 4 C. For light microscopy, the following antibodies were used in the given concentrations: DCX, 1:200, Santa Cruz BioTech, CD68, 1:1000. AbD Serotec. Secondary biotinylated antibodies were applied the next day at a concentration of 1:300. Staining visualization was achieved by reaction with the ABC kit (Vector) and diaminobenzidine (Sigma). Dehydration of the mounted slides was achieved using ethanol and xylene dips. Images were acquired on a Leica light microscope at 5× magnification. […]

[2] = test system: twenty-four-month-old C57 mice; test: T maze test in aged mice; assay type: in vivo; settings: 4 weeks continuous infusion by osmotic pump
Experimental: The Water Maze was filled with water at least 24 hours prior to the test to allow it to reach room temperature. The water was dyed with white latex paint to make the animals visible for tracking and to allow for the use of a hidden platform. Two distinct visual cues were placed at the end of both T-arms of the T-Maze insert. On day 1 animals were given 4 trials each with a visible platform and a 30 min inter-trial interval. Animals were given 60 seconds to reach the platform. […] The goal arm was switched after every third mouse and both treatment groups had equal numbers of right and left turn goal arms. After each trial the mice were placed in an empty cage with blue pads and allowed to dry off under a red light lamp before being placed back into their home cage. Day 2 is the testing day, where animals are subjected to the same test of 4 trials each and a 30 min inter trial interval, but with a hidden platform. Animals were scored for right or wrong choice and for latency to reach the platform, and a binomial test was conducted to compare success rates between control and compound-treated mice. All trials were recorded using TopScan.
Twenty-four-month-old C57 mice were treated for 4 weeks with continuous infusion of Compound 1 or vehicle by Alzet osmotic pump, which were implanted to continuously deliver the two treatments. […]

[3] = test system: three-month-old C57 mice treated with LPS; test: Y maze test in mice given daily LPS; assay type: in vivo; settings: 3-month-old mice; daily LPS 0.5 mg/kg IP; 30 mg/kg PO BID, after 3 weeks
Experimental: A large Y-maze test assesses short-term memory of the familiarity of a specific context. Mice are brought to the experimental room for at least 30 min of acclimation to the experimental room conditions (dim lighting) prior to testing. For the initial training trial, the mouse is placed at the end of one arm of a large Y-maze designated “start arm” (arm length: 15 inches). The third arm of the maze is blocked off, allowing the mouse to explore two of the three arms freely (“start arm” and “familiar arm”) for 5 min. Each arm contains spatial cues. One hour later, the mouse is placed back into the maze in the “start arm” and allowed to explore all three arms with the third arm unblocked (“novel arm”). Movements in and out of each arm are tracked using automated tracking software (CleverSys). Testing is performed under dim lighting, and the apparatus is cleaned with 70% ethanol between trials.
(§1) Three-month-old C57 mice were given daily doses of lipopolysaccharide (LPS) 0.5 mg/kg IP to induce inflammation and treated with Compound 1 for up to 4 weeks. […]

IL-1beta mRNA = test: qPCR of IL-1beta mRNA in cortical brain tissue of mice given daily LPS; assay type: in vivo, C57Bl/6 mice; settings: 3-month-old mice, daily LPS IP 7 weeks, 30 mg/kg PO BID 4 weeks
Text: Snap-frozen hemibrains were dissected out into cortex, hippocampus, striatum, and thalamus. The cortex was split into three homogeneous parts and one part was used for RNA isolation. RNA was isolated using the Prolink RNA Mini Kit (Thermo Fisher Scientific #12183025). cDNA was made using Taqman RT Kit (Thermo Fisher Sci #N8080234). qPCR was run on a Quant Studio 6 using custom made Taqman Multiplex Primers for IL-1beta and GAPDH. All samples were run together on a single plate and analyzed for ddCT relative to their endogenous control first and then relative to the control group.
as §1

Cc1cc(C(=O)N(C)C)cc(NC(=O)[C@H]2CCC(=O)N2C2CCN(Cc3ccc(Cl)c(C)c3)CC2)n1 [Compound 1]
doublecortin-positive cells in the hippocampus [1]: increased the numbers of doublecortin-positive cells | T maze success versus vehicle (binomial test) [2]: succeeded more than vehicle-treated mice | Y maze preference for the novel arm [3]: showed a significant preference for the novel arm | IL-1beta mRNA level in brain (IL-1beta mRNA): significant decrease in IL-1beta expression
